In the supplement of paper PMC11061612:

Experiments:
Capivasertib = compound: C1CN(CCC1(C(=O)N[C@@H](CCO)C2=CC=C(C=C2)Cl)N)C3=NC=NC4=C3C=CN4 [Capivasertib]; settings: max 10 µM
In short: (§1)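 Plates with 1536 wells received cancer cell lines in 7.5 μl of DMEM/F12 or RPMI containing 10% FBS. After 24 hours at 37°C and 5% CO2, cells were dosed for 72 hours with final DMSO typically 0.2%, and viability was read by CellTiter-Glo 2.0 luminescence scaled between blank-well and DMSO-well means. The single-agent IC50 was taken from a logistic fit of the dose responses made with a non-linear mixed effects model, that logistic curve having two parameters.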

AZD1775 = compound: C=CCn1c(=O)c2cnc(Nc3ccc(N4CCN(C)CC4)cc3)nc2n1-c1cccc(C(C)(C)O)n1 [AZD1775]; settings: max 3 µM
In short: as §1

Trametinib = compound: CC(=O)Nc1cccc(-n2c(=O)n(C3CC3)c(=O)c3c(Nc4ccc(I)cc4F)n(C)c(=O)c(C)c32)c1 [Trametinib]; settings: max 1 µM
In short: as §1

Palbociclib = compound: CC(=O)c1c(C)c2cnc(Nc3ccc(N4CCNCC4)cn3)nc2n(C2CCCC2)c1=O [Palbociclib]; settings: max 10 µM
In short: as §1

AZD1390 = compound: CC(C)n1c(=O)n(C)c2cnc3cc(F)c(-c4ccc(OCCCN5CCCCC5)nc4)cc3c21 [AZD1390]; settings: max 0.3 µM
In short: as §1

Venetoclax = compound: CC1(C)CCC(CN2CCN(c3ccc(C(=O)NS(=O)(=O)c4ccc(NCC5CCOCC5)c([N+](=O)[O-])c4)c(Oc4cnc5[nH]ccc5c4)c3)CC2)=C(c2ccc(Cl)cc2)C1 [Venetoclax]; settings: max 1 µM
In short: as §1

Dasatinib = compound: CC1=C(C(=CC=C1)Cl)NC(=O)C2=CN=C(S2)NC3=CC(=NC(=N3)C)N4CCN(CC4)CCO [Dasatinib]; settings: max 2 µM
In short: as §1

SG3199 = compound: CC1=CN2[C@@H](C1)C=NC3=CC(=C(C=C3C2=O)OC)OCCCCCOC4=C(C=C5C(=C4)N=C[C@@H]6CC(=CN6C5=O)C)OC [SG3199]; settings: max 0.001 µM
In short: as §1

AZD2811 = compound: CCN(CCO)CCCOc1ccc2c(Nc3cc(CC(=O)Nc4cccc(F)c4)[nH]n3)ncnc2c1 [AZD2811]; settings: max 1 µM
In short: as §1

SN-38 = compound: CCc1c2c(nc3ccc(O)cc13)-c1cc3c(c(=O)n1C2)COC(=O)[C@]3(O)CC [SN-38]; settings: max 0.3 µM
In short: as §1

AZD0156 = compound: CN(C)CCCOc1ccc(-c2ccc3ncc4c(c3c2)n(C2CCOCC2)c(=O)n4C)cn1 [AZD0156]; settings: max 3 µM
In short: as §1

AZD4320 = compound: CN(CC[C@H](CSC1=CC=CC=C1)NC2=C(C=C(C=C2)S(=O)(=O)NC(=O)C3=CC=C(C=C3)N4CCC(CC4)[C@H](C5=CC=CC=C5C6=CC=C(C=C6)Cl)O)S(=O)(=O)C(F)(F)F)CCO [AZD4320]; settings: max 1 µM
In short: as §1

Alisertib = compound: COc1cc(Nc2ncc3c(n2)-c2ccc(Cl)cc2C(c2c(F)cccc2OC)=NC3)ccc1C(=O)O [Alisertib]; settings: max 10 µM
In short: as §1

Gefitinib = compound: COc1cc2ncnc(Nc3ccc(F)c(Cl)c3)c2cc1OCCCN1CCOCC1 [Gefitinib]; settings: max 10 µM
In short: as §1

Prexasertib = compound: COc1cccc(OCCCN)c1-c1cc(Nc2cnc(C#N)cn2)n[nH]1 [Prexasertib]; settings: max 1 µM
In short: as §1

Doxorubicin = compound: COc1cccc2c1C(=O)c1c(O)c3c(c(O)c1C2=O)C[C@@](O)(C(=O)CO)C[C@@H]3O[C@H]1C[C@H](N)[C@H](O)[C@H](C)O1 [Doxorubicin]; settings: max 1 µM
In short: as §1

AZD5153 = compound: COc1nnc2ccc(N3CCC(c4ccc(OCCN5CCN(C)C(=O)[C@H]5C)cc4)CC3)nn12 [AZD5153]; settings: max 1 µM
In short: as §1

Lapatinib = compound: CS(=O)(=O)CCNCc1ccc(-c2ccc3ncnc(Nc4ccc(OCc5cccc(F)c5)c(Cl)c4)c3c2)o1 [Lapatinib]; settings: max 10 µM
In short: as §1

AZD8186 = compound: C[C@@H](Nc1cc(F)cc(F)c1)c1cc(C(=O)N(C)C)cc2c(=O)cc(N3CCOCC3)oc12 [AZD8186]; settings: max 3 µM
In short: as §1

Crizotinib = compound: C[C@@H](Oc1cc(-c2cnn(C3CCNCC3)c2)cnc1N)c1c(Cl)ccc(F)c1Cl [Crizotinib]; settings: max 10 µM
In short: as §1

Savolitinib = compound: C[C@@H](c1ccc2nccn2c1)n1nnc2ncc(-c3cnn(C)c3)nc21 [Savolitinib]; settings: max 1 µM
In short: as §1

AZD6738 = compound: C[C@@H]1COCCN1C2=NC(=NC(=C2)C3(CC3)[S@](=N)(=O)C)C4=C5C=CNC5=NC=C4 [AZD6738]; settings: max 10 µM
In short: as §1

AZD5991 = compound: Cc1c2c(nn1C)CSCc1cc(n(C)n1)CSc1cc(c3ccccc3c1)OCCCc1c(C(=O)O)n(C)c3c-2c(Cl)ccc13 [AZD5991]; settings: max 1 µM
In short: as §1

AZD7648 = compound: Cc1cc2ncnn2cc1Nc1ncc2c(n1)n(C1CCOCC1)c(=O)n2C [AZD7648]; settings: max 10 µM
In short: as §1

Taselisib = compound: Cc1nc(-c2cn3c(n2)-c2ccc(-c4cnn(C(C)(C)C(N)=O)c4)cc2OCC3)n(C(C)C)n1 [Taselisib]; settings: max 10 µM
In short: as §1

Selumetinib = compound: Cn1cnc2c(F)c(Nc3ccc(Br)cc3Cl)c(C(=O)NOCCO)cc21 [Selumetinib]; settings: max 10 µM
In short: as §1

MK-2206 = compound: NC1(c2ccc(-c3nc4ccn5c(=O)[nH]nc5c4cc3-c3ccccc3)cc2)CCC1 [MK-2206]; settings: max 10 µM
In short: as §1

Olaparib = compound: O=C(c1cc(Cc2n[nH]c(=O)c3ccccc23)ccc1F)N1CCN(C(=O)C2CC2)CC1 [Olaparib]; settings: max 10 µM
In short: as §1

Cell Line | IC50, cell viability 72 h (Capivasertib) [nM] | IC50, cell viability 72 h (AZD1775) [nM] | IC50, cell viability 72 h (Trametinib) [nM] | IC50, cell viability 72 h (Palbociclib) [nM] | IC50, cell viability 72 h (AZD1390) [nM] | IC50, cell viability 72 h (Venetoclax) [nM] | IC50, cell viability 72 h (Dasatinib) [nM] | IC50, cell viability 72 h (SG3199) [nM] | IC50, cell viability 72 h (AZD2811) [nM] | IC50, cell viability 72 h (SN-38) [nM] | IC50, cell viability 72 h (AZD0156) [nM] | IC50, cell viability 72 h (AZD4320) [nM] | IC50, cell viability 72 h (Alisertib) [nM] | IC50, cell viability 72 h (Gefitinib) [nM] | IC50, cell viability 72 h (Prexasertib) [nM] | IC50, cell viability 72 h (Doxorubicin) [nM] | IC50, cell viability 72 h (AZD5153) [nM] | IC50, cell viability 72 h (Lapatinib) [nM] | IC50, cell viability 72 h (AZD8186) [nM] | IC50, cell viability 72 h (Crizotinib) [nM] | IC50, cell viability 72 h (Savolitinib) [nM] | IC50, cell viability 72 h (AZD6738) [nM] | IC50, cell viability 72 h (AZD5991) [nM] | IC50, cell viability 72 h (AZD7648) [nM] | IC50, cell viability 72 h (Taselisib) [nM] | IC50, cell viability 72 h (Selumetinib) [nM] | IC50, cell viability 72 h (MK-2206) [nM] | IC50, cell viability 72 h (Olaparib) [nM]
SBC-5 (Small Cell Lung Carcinoma) | > 10000 | 1140 | > 1000 | > 10000 | > 300 | > 1000 | > 2000 | > 1 | > 1000 | 20.2 | > 3000 | > 1000 | 3250 | > 10000 | 79.5 | > 1000 | 507 | > 10000 | > 3000 | 7270 | > 1000 | 5870 | > 1000 | > 10000 | 4640 | > 10000 | > 10000 | > 10000
SCC90 (Head and Neck Carcinoma) | 2300 | > 3000 | 7.16 | > 10000 | > 300 | > 1000 | > 2000 | > 1 | > 1000 | > 300 | > 3000 | > 1000 | 7380 | 970 | 122 | > 1000 | > 1000 | 882 | > 3000 | > 10000 | > 1000 | > 10000 | 266 | > 10000 | 1900 | 497 | 8220 | > 10000
SK-N-DZ (Neuroblastoma) | > 10000 | 278 | > 1000 | 5330 | > 300 | > 1000 | > 2000 | > 1 | > 1000 | 24.7 | > 3000 | 628 | 256 | > 10000 | 16.9 | 748 | 294 | 5560 | > 3000 | 1860 | > 1000 | 2390 | > 1000 | > 10000 | > 10000 | > 10000 | – | > 10000
SNU-1 (Gastric Carcinoma) | > 10000 | 1350 | 757 | > 10000 | > 300 | > 1000 | > 2000 | > 1 | > 1000 | 12.9 | > 3000 | > 1000 | > 10000 | > 10000 | 97.1 | 237 | 265 | > 10000 | > 3000 | > 10000 | > 1000 | 5010 | 938 | > 10000 | 9030 | > 10000 | – | > 10000
SUP-HD1 (Hodgkin's Lymphoma) | 7900 | 1330 | > 1000 | > 10000 | > 300 | 15.6 | > 2000 | > 1 | 995 | 2.49 | > 3000 | 12.6 | 5400 | > 10000 | 15.5 | 99.6 | 224 | > 10000 | > 3000 | 6540 | > 1000 | 4040 | 516 | > 10000 | 5270 | > 10000 | – | > 10000
TOV-21G (Ovarian Carcinoma) | 1550 | 754 | > 1000 | > 10000 | > 300 | > 1000 | 139 | > 1 | > 1000 | 148 | > 3000 | > 1000 | 2950 | > 10000 | 299 | > 1000 | 334 | > 10000 | > 3000 | 9300 | > 1000 | 3650 | > 1000 | > 10000 | 6230 | > 10000 | – | > 10000
